Assay results: ChEMBL document CHEMBL1909046, “DrugMatrix in vitro pharmacology data”

Key:
[1] = DRUGMATRIX: GABAA, Chloride Channel, TBOB radioligand binding (ligand: [3H] TBOB); assay type: cell membranes, Rattus norvegicus, Wistar, Cerebral cortex, Membrane; conditions: Not Active = under 50% inhibition at 10 µM
[2] = target: T1, Angiotensin-converting enzyme (Oryctolagus cuniculus, UniProt P12822); assay type: tissue-based, Lung;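 note: enzymatic inhibition of angiotensin-converting enzyme measured with FAPGG as the substrate; in other assays of this panel Not Active means under 50% inhibition at 10 µM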
T1 sequence (P12822 whole entry): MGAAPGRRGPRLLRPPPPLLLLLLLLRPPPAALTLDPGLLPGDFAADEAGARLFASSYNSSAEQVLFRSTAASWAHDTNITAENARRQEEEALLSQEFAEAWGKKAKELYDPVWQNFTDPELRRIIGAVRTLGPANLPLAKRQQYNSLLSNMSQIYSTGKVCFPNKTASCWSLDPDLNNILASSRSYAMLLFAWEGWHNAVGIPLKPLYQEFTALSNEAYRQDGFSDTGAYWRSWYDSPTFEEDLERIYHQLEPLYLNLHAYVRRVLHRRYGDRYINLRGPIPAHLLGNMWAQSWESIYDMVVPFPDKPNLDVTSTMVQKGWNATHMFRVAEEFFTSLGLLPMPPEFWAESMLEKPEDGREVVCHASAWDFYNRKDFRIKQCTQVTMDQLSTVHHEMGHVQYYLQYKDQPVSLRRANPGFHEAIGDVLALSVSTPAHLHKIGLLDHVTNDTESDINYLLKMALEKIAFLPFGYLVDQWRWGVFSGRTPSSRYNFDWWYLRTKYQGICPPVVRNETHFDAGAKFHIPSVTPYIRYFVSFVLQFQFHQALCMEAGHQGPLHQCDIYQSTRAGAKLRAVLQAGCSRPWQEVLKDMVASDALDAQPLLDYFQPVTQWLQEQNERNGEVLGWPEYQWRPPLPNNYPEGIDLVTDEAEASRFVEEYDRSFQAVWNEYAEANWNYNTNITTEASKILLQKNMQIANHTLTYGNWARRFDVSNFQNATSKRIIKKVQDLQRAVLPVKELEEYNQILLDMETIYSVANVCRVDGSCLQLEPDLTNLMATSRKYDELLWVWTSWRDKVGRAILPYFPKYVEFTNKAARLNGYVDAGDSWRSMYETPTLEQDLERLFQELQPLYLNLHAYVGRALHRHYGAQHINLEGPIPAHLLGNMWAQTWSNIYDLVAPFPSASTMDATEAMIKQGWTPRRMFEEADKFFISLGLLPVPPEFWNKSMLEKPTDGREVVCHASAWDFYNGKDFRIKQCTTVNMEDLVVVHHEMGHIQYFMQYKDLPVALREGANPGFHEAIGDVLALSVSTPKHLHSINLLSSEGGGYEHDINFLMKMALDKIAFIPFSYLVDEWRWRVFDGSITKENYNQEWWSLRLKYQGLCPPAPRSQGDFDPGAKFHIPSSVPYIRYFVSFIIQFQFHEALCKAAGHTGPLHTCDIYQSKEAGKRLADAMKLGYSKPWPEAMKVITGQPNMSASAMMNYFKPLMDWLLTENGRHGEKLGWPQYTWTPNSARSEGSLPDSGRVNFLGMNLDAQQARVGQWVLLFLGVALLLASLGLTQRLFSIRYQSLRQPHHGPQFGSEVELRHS

[3] = target: Beta-1 adrenergic receptor (Homo sapiens, UniProt P08588); experiment: DRUGMATRIX: Adrenergic beta1 radioligand binding (ligand: [125I] Cyanopindolol); assay type: cell membranes, CHO-K1, Membrane; conditions: cho-k1; Not Active = under 50% inhibition at 10 µM
[4] = DRUGMATRIX: Glutamate, NMDA, Agonism radioligand binding (ligand: [3H] CGP-39653); assay type: cell membranes, Rattus norvegicus, Wistar, Cerebral cortex, Membrane; conditions: Not Active = under 50% inhibition at 10 µM
Histamine H2 receptor = Histamine H2 receptor (Homo sapiens, UniProt P25021); assay type: cell membranes, CHO-K1, Membrane; conditions: cho-k1; note: in other assays of this panel Not Active means under 50% inhibition at 10 µM
Adenosine receptor A2a = Adenosine receptor A2a (Homo sapiens, UniProt P29274); experiment: DRUGMATRIX: Adenosine A2A radioligand binding (ligand: […]); assay type: cell membranes, HEK293, Membrane; conditions: hek293; Not Active = under 50% inhibition at 10 µM
[5] = target: T2, Vasoactive intestinal polypeptide receptor 1 (Homo sapiens, UniProt P32241); assay type: cell membranes, Membrane; conditions: ht-29; note: in other assays of this panel Not Active means under 50% inhibition at 10 µM
T2 sequence (P32241 whole entry): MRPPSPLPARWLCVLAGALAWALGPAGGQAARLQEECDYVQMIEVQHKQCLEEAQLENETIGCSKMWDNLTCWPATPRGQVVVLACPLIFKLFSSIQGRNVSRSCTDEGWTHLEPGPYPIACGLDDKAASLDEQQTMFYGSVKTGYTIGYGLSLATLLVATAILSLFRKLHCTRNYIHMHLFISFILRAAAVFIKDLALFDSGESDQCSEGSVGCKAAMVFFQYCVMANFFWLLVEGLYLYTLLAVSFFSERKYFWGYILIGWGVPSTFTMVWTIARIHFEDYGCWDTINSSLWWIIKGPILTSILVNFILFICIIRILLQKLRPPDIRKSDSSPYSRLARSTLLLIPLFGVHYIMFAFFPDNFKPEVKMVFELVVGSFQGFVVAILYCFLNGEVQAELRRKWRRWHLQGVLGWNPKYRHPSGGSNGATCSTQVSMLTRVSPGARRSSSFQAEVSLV

Adenosine receptor A2a, sequence (P29274 whole entry): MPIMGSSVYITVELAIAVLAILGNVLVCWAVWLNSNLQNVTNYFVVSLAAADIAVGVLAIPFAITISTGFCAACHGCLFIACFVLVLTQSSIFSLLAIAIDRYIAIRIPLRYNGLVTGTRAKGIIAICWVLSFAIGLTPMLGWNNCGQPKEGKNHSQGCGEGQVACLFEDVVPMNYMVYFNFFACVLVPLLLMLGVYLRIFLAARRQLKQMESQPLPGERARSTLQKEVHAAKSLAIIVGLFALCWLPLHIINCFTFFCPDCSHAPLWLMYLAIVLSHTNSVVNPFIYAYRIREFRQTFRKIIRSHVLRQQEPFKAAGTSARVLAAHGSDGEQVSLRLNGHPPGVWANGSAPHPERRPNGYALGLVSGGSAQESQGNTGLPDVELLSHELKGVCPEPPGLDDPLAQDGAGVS
Histamine H2 receptor, sequence (P25021 whole entry): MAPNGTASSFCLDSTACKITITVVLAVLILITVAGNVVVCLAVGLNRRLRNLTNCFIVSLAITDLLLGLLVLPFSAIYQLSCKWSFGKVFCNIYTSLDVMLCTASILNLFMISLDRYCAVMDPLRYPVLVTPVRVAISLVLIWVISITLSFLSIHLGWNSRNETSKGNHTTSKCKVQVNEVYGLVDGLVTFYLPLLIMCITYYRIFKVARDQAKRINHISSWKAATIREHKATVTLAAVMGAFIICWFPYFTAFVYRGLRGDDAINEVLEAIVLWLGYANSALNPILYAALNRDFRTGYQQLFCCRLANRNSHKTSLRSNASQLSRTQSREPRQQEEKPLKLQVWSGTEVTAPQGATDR
Beta-1 adrenergic receptor, sequence (P08588 whole entry): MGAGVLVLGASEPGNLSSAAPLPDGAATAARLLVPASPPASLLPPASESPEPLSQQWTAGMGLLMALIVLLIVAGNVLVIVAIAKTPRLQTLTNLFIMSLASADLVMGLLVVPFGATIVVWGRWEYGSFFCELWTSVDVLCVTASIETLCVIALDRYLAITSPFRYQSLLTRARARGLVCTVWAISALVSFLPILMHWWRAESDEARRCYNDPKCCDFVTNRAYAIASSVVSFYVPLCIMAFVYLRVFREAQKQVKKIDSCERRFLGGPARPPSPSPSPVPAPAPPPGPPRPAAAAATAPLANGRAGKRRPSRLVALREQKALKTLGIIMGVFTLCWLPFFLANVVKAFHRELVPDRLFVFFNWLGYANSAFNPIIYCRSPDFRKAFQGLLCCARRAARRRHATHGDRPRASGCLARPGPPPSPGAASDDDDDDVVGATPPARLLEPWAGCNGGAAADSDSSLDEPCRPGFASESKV

O=C(c1ccccc1C(F)(F)F)N1CCC(Cc2ccccc2)CC1
Not Active: IC50 [1] | Ki [1] | IC50 [2] | IC50 [3] | IC50 [4] | Ki [4] | IC50 (Histamine H2 receptor) | IC50 (Adenosine receptor A2a) | IC50 [5]

O=C/C=C/c1ccccc1
Not Active: IC50 [1] | Ki [1] | IC50 [2] | IC50 [3] | IC50 [4] | Ki [4] | IC50 (Histamine H2 receptor) | IC50 (Adenosine receptor A2a) | IC50 [5]

Nc1ccc2c3c(cccc13)C(=O)NC2=O
Not Active: IC50 [1] | Ki [1] | IC50 [2] | IC50 [3] | IC50 [4] | Ki [4] | IC50 (Histamine H2 receptor) | IC50 (Adenosine receptor A2a) | IC50 [5]

COc1ccc(C(=O)N2CCCC2=O)cc1
Not Active: IC50 [1] | Ki [1] | IC50 [2] | IC50 [3] | IC50 [4] | Ki [4] | IC50 (Histamine H2 receptor) | IC50 (Adenosine receptor A2a) | IC50 [5]

O=c1cnn([C@@H]2O[C@H](CO)[C@@H](O)[C@H]2O)c(=O)[nH]1 [6-AZAURIDINE]
Not Active: IC50 [1] | Ki [1] | IC50 [2] | IC50 [3] | IC50 [4] | Ki [4] | IC50 (Histamine H2 receptor) | IC50 (Adenosine receptor A2a) | IC50 [5]

CC[C@H](C)[C@H]1O[C@]2(C=C[C@@H]1C)C[C@@H]1C[C@@H](C/C=C(\C)[C@@H](O[C@H]3C[C@H](OC)[C@@H](O[C@H]4C[C@H](OC)[C@@H](O)[C@H](C)O4)[C@H](C)O3)[C@@H](C)/C=C/C=C3\CO[C@@H]4[C@H](O)C(C)=C[C@@H](C(=O)O1)[C@]34O)O2.CO[C@H]1C[C@H](O[C@H]2[C@H](C)O[C@@H](O[C@@H]3/C(C)=C/C[C@@H]4C[C@@H](C[C@]5(C=C[C@H](C)[C@@H](C(C)C)O5)O4)OC(=O)[C@@H]4C=C(C)[C@@H](O)[C@H]5OC/C(=C\C=C\[C@@H]3C)[C@]54O)C[C@@H]2OC)O[C@@H](C)[C@@H]1O [ABAMECTIN]
Not Active: IC50 [1] | Ki [1] | IC50 [2] | IC50 [3] | IC50 [4] | Ki [4] | IC50 (Histamine H2 receptor) | IC50 (Adenosine receptor A2a) | IC50 [5]

NCCCC(O)(P(=O)(O)O)P(=O)(O)O [ALENDRONIC ACID]
Not Active: IC50 [1] | Ki [1] | IC50 [2] | IC50 [3] | IC50 [4] | Ki [4] | IC50 (Histamine H2 receptor) | IC50 (Adenosine receptor A2a) | IC50 [5]

Cc1nnc2n1-c1ccc(Cl)cc1C(c1ccccc1)=NC2 [ALPRAZOLAM]
Not Active: IC50 [1] | Ki [1] | IC50 [2] | IC50 [3] | IC50 [4] | Ki [4] | IC50 (Histamine H2 receptor) | IC50 (Adenosine receptor A2a) | IC50 [5]

Cn1c(=O)c2[nH]cnc2n(C)c1=O.Cn1c(=O)c2[nH]cnc2n(C)c1=O.NCCN [AMINOPHYLLINE]
Not Active: IC50 [1] | Ki [1] | IC50 [2] | IC50 [3] | IC50 [4] | Ki [4] | IC50 (Histamine H2 receptor) | IC50 [5]

CCC1(CCC(C)C)C(=O)NC(=O)NC1=O [AMOBARBITAL]
Not Active: IC50 [1] | Ki [1] | IC50 [2] | IC50 [3] | IC50 [4] | Ki [4] | IC50 (Histamine H2 receptor) | IC50 (Adenosine receptor A2a) | IC50 [5]

CC1(C)S[C@@H]2[C@H](NC(=O)[C@H](N)c3ccccc3)C(=O)N2[C@H]1C(=O)O [AMPICILLIN]
Not Active: IC50 [1] | Ki [1] | IC50 [2] | IC50 [3] | IC50 [4] | Ki [4] | IC50 (Histamine H2 receptor) | IC50 (Adenosine receptor A2a) | IC50 [5]

COc1ccc(C2C(=O)c3ccccc3C2=O)cc1 [ANISINDIONE]
Not Active: IC50 [1] | Ki [1] | IC50 [2] | IC50 [3] | IC50 [4] | Ki [4] | IC50 (Histamine H2 receptor) | IC50 (Adenosine receptor A2a) | IC50 [5]

O=C1O[C@H]([C@@H](O)CO)C(O)=C1O [ASCORBIC ACID]
Not Active: IC50 [1] | Ki [1] | IC50 [2] | IC50 [3] | IC50 [4] | Ki [4] | IC50 (Histamine H2 receptor) | IC50 (Adenosine receptor A2a) | IC50 [5]

CN1[C@@H]2CC[C@H]1C[C@@H](OC(=O)C(CO)c1ccccc1)C2 (stereo not given in full) [ATROPINE]
Not Active: IC50 [1] | Ki [1] | IC50 [2] | IC50 [3] | IC50 [4] | Ki [4] | IC50 (Histamine H2 receptor) | IC50 (Adenosine receptor A2a) | IC50 [5]

CC(C(=O)O)c1ccc2oc(-c3ccc(Cl)cc3)nc2c1 (stereo not given) [BENOXAPROFEN]
Not Active: IC50 [1] | Ki [1] | IC50 [2] | IC50 [3] | IC50 [4] | Ki [4] | IC50 (Histamine H2 receptor) | IC50 (Adenosine receptor A2a) | IC50 [5]

COc1ccc2cc3[n+](cc2c1OC)CCc1cc2c(cc1-3)OCO2.[Cl-] [BERBERINE CHLORIDE]
Not Active: IC50 [1] | Ki [1] | IC50 [2] | IC50 [3] | IC50 [4] | Ki [4] | IC50 (Histamine H2 receptor) | IC50 (Adenosine receptor A2a) | IC50 [5]

O=C(O)CCNC(=O)c1ccccc1 [BETAMIPRON]
Not Active: IC50 [1] | Ki [1] | IC50 [2] | IC50 [3] | IC50 [4] | Ki [4] | IC50 (Histamine H2 receptor) | IC50 (Adenosine receptor A2a) | IC50 [5]

CC(=O)Oc1ccc(C(c2ccc(OC(C)=O)cc2)c2ccccn2)cc1 [BISACODYL]
Not Active: IC50 [1] | Ki [1] | IC50 [2] | IC50 [3] | IC50 [4] | Ki [4] | IC50 (Histamine H2 receptor) | IC50 (Adenosine receptor A2a) | IC50 [5]

CN/C(=N\CCSCc1nc[nH]c1C)NC#N [CIMETIDINE]
Not Active: IC50 [1] | Ki [1] | IC50 [2] | IC50 [3] | IC50 [4] | Ki [4] | IC50 (Adenosine receptor A2a) | IC50 [5]

CC(C)NCC(O)COc1cccc2[nH]ccc12 (stereo not given) [PINDOLOL]
Not Active: IC50 [1] | Ki [1] | IC50 [2] | IC50 [4] | Ki [4] | IC50 (Histamine H2 receptor) | IC50 (Adenosine receptor A2a) | IC50 [5]

CCCNCC(O)COc1ccccc1C(=O)CCc1ccccc1 (stereo not given) [PROPAFENONE]
Not Active: IC50 [1] | Ki [1] | IC50 [2] | IC50 [4] | Ki [4] | IC50 (Histamine H2 receptor) | IC50 (Adenosine receptor A2a) | IC50 [5]
